Read-outs that look alike come from different tables or passages of the source.
Assays:
[1] = system: LPS-induced TNFα release in d-U937 cells; assay: LPS-induced TNFα release in d-U937 cells; assay type: cell-based; details: Homo sapiens, dU937, 4 h
Protocol: U937 cells, a human monocytic cell line, were differentiated to macrophage-type cells by incubation with phorbol myristate acetate (PMA; 100 ng/ml) for 48 to 72 hr. […] The supernatant was collected for determination of TNFα and IL-8 concentrations by sandwich ELISA (Duo-set, R&D systems). […] The relative 50% effective concentration (REC50) was determined from the resultant concentration-response curve. The inhibition of IL-8 production was calculated at each concentration of test compound by comparison with vehicle control.

[2] = system: LPS-induced TNFα release in THP-1 cells; assay: LPS-induced TNFα release in THP-1 cells; assay type: cell-based; details: Homo sapiens
Protocol: THP-1 cells, a human monocytic cell line, were stimulated with 3 μg/mL of LPS (from E. Coli; 0111:B4, Sigma) for 4 hr and the supernatant collected for determination of the TNFα concentration by sandwich ELISA (Duo-set, R&D systems). The inhibition of TNFα production was calculated at each concentration by comparison with vehicle control. The 50% inhibitory concentration (IC50) was determined from the resultant concentration-response curve.

[3] = system: Differentiated U937 cells; assay: MTT assay: cell viability; assay type: cell-based, human; details: 10 μg/ml
Protocol: The supernatant was replaced with 200 μL of new media and 10 μL of MTT stock solution (5 mg/mL) was added to each well. After incubation for 1 hr the media were removed, 200 μL of DMSO was added to each well and the plates were shaken lightly for 1 hr prior to reading the absorbance at 550 nm. The percentage loss of cell viability was calculated for each well relative to vehicle (0.5% DMSO) treatment. Consequently an apparent increase in cell viability for drug treatment relative to vehicle is tabulated as a negative percentage.

Structure (SMILES) | EC50 ([1]; read-out: LPS/TNFα d-U937 REC50) | IC50 ([2]; THP-1 cells, 3 μg/mL LPS, 4 hr, read-out: LPS/TNFα THP-1 IC50) | MTT Assay 4 h (cell viability) ([3]; d-U937, 4 hr in 5% FCS) | MTT Assay 24 h (cell viability) ([3]; d-U937, 24 h in 10% FCS) | EC50 ([1]; read-out: LPS/TNFα d-U937 REC50 (nM)) | IC50 ([2]; THP-1, 4 h, read-out: LPS/TNFα THP-1 IC50 (nM))
Cc1ccc(-n2nc(C(C)(C)C)cc2NC(=O)Nc2ccc(OCCN3CCOCC3)c3ccccc23)cc1 [BIRB796, 1-(3-tert-Butyl-1-p-tolyl-1H-pyrazol-5-yl)-3-(4-(2-morpholinoethoxy)naphthalen-1-yl)urea] | 4.8 nM | 4.1 nM | − (− = <30% inhibition at 10 μg/ml) | − (− = <30% inhibition at 10 μg/ml) | – | –
CC(=O)Nc1cc(Oc2ccc(NC(=O)Nc3cc(C(C)(C)C)nn3-c3ccc(C)cc3)c3ccccc23)ccn1 [Example 3, N-(4-((4-(3-(3-(tert-Butyl)-1-(p-tolyl)-1H-pyrazol-5-yl)ureido)naphthalen-1-yl)oxy)pyridin-2-yl)acetamide] | – | – | – | – | 1 nM | 1.6 nM
